Values joined by “and” are separate entries in the source; they are usually repeats but may differ in a detail not shown here. Equal entries are not always repeated. Where two headings read alike, the source gives them in different places. Marks after values point to notes of the source that are not given here.
How the values were obtained:
[1] = test system: Rhizoctonia solani; experiment: Synergy test of two-compound mixtures, Rhizoctonia solani (RHIZSO) on turf, observed and expected PRCO; assay type: in vivo; details: assessed 5 days after treatment
[2] = test system: Plasmopara viticola; experiment: Synergy test of two-compound mixtures, Plasmopara viticola (PLASVI) on vines, observed and expected PRCO; assay type: in vivo; details: Disease on untreated: 95%
[3] = test system: Puccinia recondita; experiment: Fungicidal test, Puccinia recondita (PUCCRT) on wheat, PRCO; assay type: in vivo
[4] = test system: Pyricularia oryzae; assay type: in vivo; details: METHOD 2 (unbanded)
[5] = test system: Botrytis cinerea; experiment: Fungicidal test, Botrytis cinerea (BOTRCI) on tomatoes, PRCO; assay type: in vivo; details: METHOD 2 (unbanded)
[6] = test system: Musca domestica; details: 500 ppm by weight; knockdown assessed 15 minutes after treatment
Description: (§1) The activities of individual compounds of formula (I) were determined using a variety of pests. With the exception of nematodes, the pests were treated with a liquid composition containing 500 parts per million (ppm) by weight of a compound unless otherwise stated. Each composition was made by dissolving the compound in an acetone and ethanol (50:50 by volume) mixture and diluting the solution with water containing 0.05% by volume of a wetting agent, SYNPERONIC NP8, until the liquid composition contained the required concentration of the compound.
The test procedure adopted with regard to each pest, except nematodes, was essentially the same and composed supporting a number of the pests on a medium which was usually a substrate, a host plant or a foodstuff on which the pests feed, and treating either or both the medium and the pests with a composition. Pest mortality was assessed usually between three and five days after treatment Knockdown of housefly (Musca domestica) was assessed 15 minutes after treatment

[7] = test system: Erysiphe graminis f.sp. tritici; experiment: Fungicidal test, Erysiphe graminis f.sp. tritici (ERYSGT) on wheat, PRCO; assay type: in vivo; details: for ERYSGT 6 hr Prot/Foir PRCO: METHOD 1 (values marked *); for ERYSGT 1 d Prot/Foir PRCO: METHOD 2 (unbanded)
[8] = test system: Phytophthora infestans lycopersici; assay type: in vivo
[9] = test system: Plasmopara viticola; experiment: Fungicidal test, Plasmopara viticola (PLASVI) on vines, PRCO; assay type: in vivo
[10] = test system: Septoria nodorum; experiment: Fungicidal test, Septoria nodorum (LEPTNO) on wheat, PRCO; assay type: in vivo; details: METHOD 2 (unbanded)
[11] = test system: Meloidogyne incognita; experiment: Nematode test, J2 infective juveniles of Meloidogyne incognita, mortality; details: 12.5 ppm; J2 infective juveniles suspended in solution; mortality after three days
Description: as §1
The test procedure for nematodes involved dissolving the compound in an acetone and ethanol (50:50 by volume) mixture and diluting the solution with water to obtain a final concentration of the compound of 12.5 ppm. J2 infective juveniles of Meloidogyne incognita were suspended in the solution in a glass vial and mortality assessed after a period of three days.

[12] = test system: Rhizoctonia solani; experiment: Fungicidal test, Rhizoctonia solani (RHIZSO) on rice, PRCO; assay type: in vivo; details: METHOD 2 (unbanded)
[13] = test system: Venturia inaequalis; experiment: Fungicidal test, Venturia inaequalis (VENTIN) on apples, PRCO; assay type: in vivo; details: METHOD 2 (unbanded)
[14] = test system: Uncinula necator; experiment: Fungicidal test, Uncinula necator (UNCINE) on vines, PRCO; assay type: in vivo; details: METHOD 2 (unbanded)
[15] = test system: Septoria nodorum; experiment: Synergy test of two-compound mixtures, Septoria nodorum (LEPTNO) on wheat, observed and expected PRCO; assay type: in vivo

| Compound | PYRIOR 1 d Prot/Foir PRCO [4] | BOTRCI 1 d Prot/Foir PRCO [5] | MUSCDO AC = Musca domestica (knockdown), score [6] | ERYSGT 6 hr Prot/Foir PRCO [7] | PLASVI 1 d Prot/Foir PRCO ([9]; METHOD 2 (unbanded)) | LEPTNO 1 d Prot/Foir PRCO [10] | MELGIN = Meloidogyne incognita, grading of mortality (score) [11] | PUCCRT 1 d Prot/Foir PRCO ([3]; METHOD 2 (unbanded)) | PHYTIN 1 d Prot/Foir PRCO ([8]; METHOD 2 (unbanded)) | RHIZSO 1 d Prot/Foir PRCO [12] | VENTIN 1 d Prot/Foir PRCO [13] | UNCINE 1 d Prot/Foir PRCO [14] | ERYSGT 1 d Prot/Foir PRCO [7] | further results |
| --- | --- | --- | --- | --- | --- | --- | --- | --- | --- | --- | --- | --- | --- | --- |
| O=[N+]([O-])c1cc(C(F)(F)F)c(Cl)c([N+](=O)[O-])c1Nc1ncc(C(F)(F)F)cc1Cl [fluazinam] | – | – | – | – | – | – | – | – | – | – | – | – | – | % disease control Observed ([1]; Test 1, fluazinam 3 mg/l alone): 15%; % disease control Observed ([1]; Test 1, fluazinam 10 mg/l alone): 48.75%; % disease control Observed ([1]; Test 2, fluazinam 10 mg/l alone): 18.4%; % disease control Observed ([2]; fluazinam 1 mg/l alone): 4% |
| CCCc1nc2cc(CC(=O)Nc3snc(C)c3Cl)ccc2o1 [4(A3)] | 90 and 81 | 49 | 9 (9 indicates 80-100% mortality) | 100* | 34 | 50 | 9 (9 indicates 80-100% mortality) | – | – | – | – | – | – | PUCCRT 1 d Prot/Foir PRCO ([3]; METHOD 1 (values marked *)): 100*; PHYTIN 1 d Prot/Foir PRCO ([8]; METHOD 1 (values marked *)): 100* |
| Cc1nsc(NC(=O)Cc2ccc3oc(C(C)(C)C)nc3c2)c1Cl [9(A3)] | 100 | 3 | 9 (9 indicates 80-100% mortality) | 100* | – | 55 | 0 (0 indicates less than 40% mortality) | 100 | 100 | 29 | 33 | 100 | – | PLASVI 1 d Prot/Foir PRCO ([9]; METHOD 1 (values marked *)): 100* |
| CSC1=N[C@@](C)(c2ccccc2)C(=O)N1Nc1ccccc1 [fenamidone] | – | – | – | – | – | – | – | – | – | – | – | – | – | % disease control Observed ([2]; fenamidone 0.2 mg/l alone): 65% |
| Cc1nc2cc(CC(=O)Nc3snc(C)c3Cl)ccc2o1 [2(A3)] | 47 and 92 | 0 | 0 (0 indicates less than 40% mortality) | 100* | – | 21 | 5 (5 indicates 40-79% mortality) | – | – | – | 97 | – | – | PUCCRT 1 d Prot/Foir PRCO ([3]; METHOD 1 (values marked *)): 100*; PHYTIN 1 d Prot/Foir PRCO ([8]; METHOD 1 (values marked *)): 100*; PLASVI 1 d Prot/Foir PRCO ([9]; METHOD 1 (values marked *)): 0* |
| Cc1nsc(NC(=O)Cc2ccc3oc(SC(C)C)nc3c2)c1Cl [223(A3)] | 63 | – | 0 (0 indicates less than 40% mortality) | – | 55 | 12 | 0 (0 indicates less than 40% mortality) | 99 | 93 | 0 | 60 | 30 | 73 | – |
| CO/C=C(/C(=O)OC)c1ccccc1Oc1cc(Oc2ccccc2C#N)ncn1 [azoxystrobin, reference compound] | – | – | – | – | – | – | – | – | – | – | – | – | – | % disease control Observed ([1]; Test 1, azoxystrobin 0.1 mg/l alone): 38.25%; % disease control Observed ([1]; Test 1, azoxystrobin 0.3 mg/l alone): 71.25%; % disease control Observed ([1]; Test 2, azoxystrobin 0.1 mg/l alone): 19.7%; % disease control Observed ([2]; azoxystrobin 0.2 mg/l alone): 61%; % disease control Observed ([15]; Test 1 (Disease on untreated: 52%), azoxystrobin 0.1 mg/l alone): 41%; % disease control Observed ([15]; Test 1 (Disease on untreated: 52%), azoxystrobin 0.25 mg/l alone): 37%; % disease control Observed ([15]; Test 2 (Disease on untreated: 64%), azoxystrobin 0.1 mg/l alone): 48%; % disease control Observed ([15]; Test 2 (Disease on untreated: 64%), azoxystrobin 0.25 mg/l alone): 71% |
| Cc1nsc(N(C)C(=O)Cc2ccc3oc(CC(C)(C)C)nc3c2)c1Cl [15(B3)] | 69 | – | 0 (0 indicates less than 40% mortality) | – | 79 | −2 | 0 (0 indicates less than 40% mortality) | 15 | 99 | 29 | 5 | 100 | 75 | – |
| CCC(CC)c1nc2cc(CC(=O)Nc3snc(C)c3Cl)ccc2o1 [13(A3)] | 96 | – | 9 (9 indicates 80-100% mortality) | – | 100 | 58 | 0 (0 indicates less than 40% mortality) | 100 | 93 | 19 | 53 | 100 | 100 | – |
| CCSc1nc2cc(CC(=O)Nc3snc(C)c3Cl)ccc2o1 [221(A3)] | 93 | – | 9 (9 indicates 80-100% mortality) | – | 84 | 20 | 0 (0 indicates less than 40% mortality) | 99 | 99 | 0 | 25 | 23 | 50 | – |
| Cc1nsc(NC(=O)Cc2ccc3oc(-c4cc(Cl)cc(Cl)c4)nc3c2)c1Cl [261(A3)] | 31 | – | 0 (0 indicates less than 40% mortality) | – | 25 | −7 | 0 (0 indicates less than 40% mortality) | 3 | 0 | 0 | 0 | 17 | 19 | – |
| Cc1nsc(NC(=O)Cc2ccc3oc(CC(C)(C)C)nc3c2)c1Cl [Compound 15(A3)] | 100 | 73 | 9 (9 indicates 80-100% mortality) | 100* | 100 | 71 | 0 (0 indicates less than 40% mortality) | 100 | – | 5 | 100 | 100 | – | % disease control Observed ([1]; Test 1, Disease on untreated 100%, Compound 15(A3) 300 mg/l alone): 2.5%; % disease control Observed ([1]; Test 2, Disease on untreated 100%, Compound 15(A3) 300 mg/l alone): 6.1%; PHYTIN 1 d Prot/Foir PRCO ([8]; METHOD 1 (values marked *)): 100*; % disease control Observed ([2]; Compound 15(A3) 0.2 mg/l alone): 45%; % disease control Observed ([15]; Test 1 (Disease on untreated: 52%), Compound 15(A3) 50 mg/l alone): 16%; % disease control Observed ([15]; Test 1 (Disease on untreated: 52%), Compound 15(A3) 100 mg/l alone): 27%; % disease control Observed ([15]; Test 2 (Disease on untreated: 64%), Compound 15(A3) 50 mg/l alone): 21%; % disease control Observed ([15]; Test 2 (Disease on untreated: 64%), Compound 15(A3) 100 mg/l alone): 21% |
| Cc1nsc(NC(=O)Cc2ccc3oc(SC(C)(C)C)nc3c2)c1Cl [224(A3)] | 91 | – | 0 (0 indicates less than 40% mortality) | – | 99 | 16 | 0 (0 indicates less than 40% mortality) | 98 | 100 | 0 | 60 | 91 | 88 | – |
